Measurements reported in patent US20240246940A1, “HETEROARYL DERIVATIVE COMPOUND AND USE THEREOF” (VORONOI INC., priority 2021, published 2024).

Assays:
[1] = tested on: BT-474 cells (HER2 overexpressing cell line); assay: BT-474 cell proliferation inhibitory activity (CellTiter-Glo, 120 hours); type: cell-based; settings: Homo sapiens
Procedure: To evaluate the cell proliferation inhibitory activity of the compound according to the present invention on HER2 and EGFR kinases, the following method was performed using HER2 overexpressing cell lines (SK-BR-3, BT-474, and N-87) and EGFR expressing cell line (HaCaT).
McCOY'S 5A supplemented with 10% FBS was used for SK-BR-3 cells, RPMI-1640 medium supplemented with 20% FBS was used for BT-474 cancer cells, and RPMI-1640 medium supplemented with 10% FBS was used for N-87 cancer cells. DMEM supplemented with 10% FBS was used for HaCaT cells.
For SK-BR-3 cells, 5000 cells were aliquoted into each well of a white clear bottom 96 well plate (Corning) 48 hours before treatment with the compounds of Examples. For BT-474 cells, 5000 cells were aliquoted into each well of a white clear bottom 96 well plate (Corning) 48 hours before treatment with the compounds of Examples. For N-87 cells, 5000 cells were aliquoted into each well of a white clear bottom 96 well plate (Corning) 24 hours before treatment with the compounds of Examples. For HaCaT cells, 3000 cells were aliquoted into each well of a white clear bottom 96 well plate (Corning) 24 hours before treatment with the compounds of Examples. For SK-BR-3 cells and BT-474 cells, the compounds of Examples were diluted in dimethyl sulfoxide (three-fold dilution, a total of 11 concentrations) and injected each in an amount of 1 μl to a final concentration of 0.2 nM to 10 μM. For N-87 cells, the compounds of Examples were diluted in dimethyl sulfoxide (five-fold dilution, a total of 11 concentrations) and injected each in an amount of 0.5 μl to a final concentration of […] to 5 μM. For HaCaT cells, the compounds of Examples were diluted in dimethyl sulfoxide (three-fold dilution, a total of 11 concentrations) and injected each in an amount of 0.5 μl to a final concentration of 0.8 nM to 45 μM. For the measurement of living cells, the cells were stored at room temperature for 10 minutes using CellTiter-Glo cell viability reagent (Promega) after a certain period of time (SK-BR-3: 120 hours, BT-474: 120 hours, N-87: 72 hours, and HaCaT: 72 hours) post treatment with the compounds of Examples, and the luminescence intensity thereof was measured using a reader (SynergyNeo, Biotek). Each test was repeated three times.
The result values were calculated as a cell growth rate (%) compared to those of the control group. A graph was created using the GraphPad Prism version 5.0 program, and GI50 values were calculated.

[2] = tested on: HaCaT cells (EGFR expressing cell line); assay: HaCaT cell proliferation inhibitory activity (CellTiter-Glo, 72 hours); type: cell-based; settings: Homo sapiens
In short: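 Plate cells (HaCaT 3000/well, others 5000/well), then allow 24 h or 48 h before dosing, with the longer wait for SK-BR-3 and BT-474. Add compounds as 3-fold series, or 5-fold for N-87, at 11 concentrations each. Read viability luminescence, compute growth % against control and derive GI50.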

SMILES	GI50 [1]	GI50 [2]
C=CC(=O)N1CCC(Oc2cc3c(Nc4cc(-c5ccc(F)c(C(F)F)c5)ccc4OC)ncnc3cc2OC)CC1 [Example 196, 1-(4-((4-((3′-(difluoromethyl)-4′-fluoro-4-methoxy-[1,1′-biphenyl]-3-yl)amino)-7-methoxy-quinazolin-6-yl)oxy)piperidin-1-yl)prop-2-en-1-one]	≤ 150 nM	150 to 1000 nM
C=CC(=O)N1CCC(Oc2cc3c(Nc4cc(-c5c(F)c(F)c(F)c(F)c5F)ccc4OC)ncnc3cc2OC)CC1 [Example 198]	150 to 1000 nM	> 1000 nM
C=CC(=O)N1CC(Oc2cc3c(Nc4cc(-c5cccc(N(C)C)c5)ccc4OC)ncnc3cc2OC)C1 [Example 199, 1-(3-((4-((3′-(dimethylamino)-4-methoxy-[1,1′-biphenyl]-3-yl)amino)-7-methoxy-quinazolin-6-yl)oxy)azetidin-1-yl)prop-2-en-1-one]	≤ 150 nM	150 to 1000 nM
C=CC(=O)N1CCC(F)(F)C(Oc2cccc3ncnc(Nc4cc(-c5ccc(F)cc5F)ccc4OC)c23)C1 (stereo not shown) [Example 200, 1-(3-((4-((2′,4′-difluoro-4-methoxy-[1,1′-biphenyl]-3-yl)amino)quinazolin-5-yl)oxy)-4,4-difluoro-piperidin-1-yl)prop-2-en-1-one]	≤ 150 nM	≤ 150 nM
C=CC(=O)N1CCC(F)(F)C(Oc2cc(OC)cc3ncnc(Nc4cc(-c5ccc(F)cc5F)ccc4OC)c23)C1 (stereo not shown) [Example 201, 1-(3-((4-((2′,4′-difluoro-4-methoxy-[1,1′-biphenyl]-3-yl)amino)-7-methoxy-quinazolin-5-yl)oxy)-4,4-difluoro-piperidin-1-yl)prop-2-en-1-one]	≤ 150 nM	≤ 150 nM
C=CC(=O)N1CCC(Oc2cc3c(Nc4cc(-c5ccc(F)c(C(F)(F)F)c5F)ccc4OC)ncnc3cc2OC)CC1 [Example 202, 1-(4-((4-((2′,4′-difluoro-4-methoxy-3-(trifluoro-methyl)′-[1,1′-biphenyl]-3-yl)amino)-7-methoxy-quinazolin-6-yl)oxy)piperidin-1-yl)prop-2-en-1-one]	≤ 150 nM	> 1000 nM
C=CC(=O)N1CCC(Oc2cc3c(Nc4cc(-c5ccc(F)c(F)c5F)ccc4OC)ncnc3cc2OC)CC1 [Example 203, 1-(4-((7-methoxy-4-((2′,3′,4′-trifluoro-4-methoxy-[1,1′-biphenyl]-3-yl)amino)quinazolin-6-yl)oxy)piperidin-1-yl)prop-2-en-1-one]	≤ 150 nM	150 to 1000 nM
C=CC(=O)N1CCC(Oc2cc3c(Nc4cc(-c5ccc(F)c(C)c5F)ccc4OC)ncnc3cc2OC)CC1 [Example 207, 1-(4-((4-((2′,4′-difluoro-4-methoxy-3′-methyl-[1,1′-biphenyl]-3-yl)amino)-7-methoxy-quinazolin-6-yl)oxy)piperidin-1-yl)prop-2-en-1-one]	≤ 150 nM	150 to 1000 nM
C=CC(=O)N1CCC(Nc2cc3c(Nc4cc(-c5cccc(C=O)c5)ccc4OC)ncnc3cc2OC)CC1 [Example 209, 3′-((6-((1-acryloyl-piperidin-4-yl)amino)-7-methoxy-quinazolin-4-yl)amino)-4′-methoxy-[1,1′-biphenyl]-3-carbaldehyde]	≤ 150 nM	150 to 1000 nM
C=CC(=O)N1CCC(Oc2cc3c(Nc4cc(-c5cc(OC)c(F)cc5F)ccc4OC)ncnc3cc2OC)CC1 [Example 213, 1-(4-((4-((2′,4′-difluoro-4,5′-dimethoxy-[1,1′-biphenyl]-3-yl)amino)-7-methoxy-quinazolin-6-yl)oxy)piperidin-1-yl)prop-2-en-1-one]	≤ 150 nM	≤ 150 nM
C=CC(=O)N1CCC(Oc2cc3c(Nc4cc(-c5ccc(F)c(OCC(F)(F)F)c5)ccc4OC)ncnc3cc2OC)CC1 [Example 214, 1-(4-((4-((4′-fluoro-4-methoxy-3′-(2,2,2-trifluoroethoxy)-[1,1′-biphenyl]-3-yl)amino)-7-methoxy-quinazolin-6-yl)oxy)piperidin-1-yl)prop-2-en-1-one]	≤ 150 nM	> 1000 nM
C=CC(=O)N1CCC(Oc2cc3c(Nc4cc(C5=CCOCC5)ccc4OC)ncnc3cc2OC)CC1 [Example 216, 1-(4-((4-((5-(3,6-dihydro-2H-pyran-4-yl)-2-methoxyphenyl)amino)-7-methoxy-quinazolin-6-yl)oxy)piperidin-1-yl)prop-2-en-1-one]	150 to 1000 nM	150 to 1000 nM
C=CC(=O)N1CC2(CC(Oc3cc4c(Nc5cc(-c6ccco6)ccc5OC)ncnc4cc3OC)C2)C1 [Example 218, 1-(6-((4-((5-(furan-2-yl)-2-methoxyphenyl)amino)-7-methoxy-quinazolin-6-yl)oxy)-2-azaspiro[3.3]heptan-2-yl)prop-2-en-1-one]	> 1000 nM	150 to 1000 nM
C=CC(=O)N1CC2(CCC(Oc3cc4c(Nc5cc(-c6ccco6)ccc5OC)ncnc4cc3OC)C2)C1 (stereo not shown) [Example 221, 1-(6-((4-((5-(furan-2-yl)-2-methoxyphenyl)amino)-7-methoxy-quinazolin-6-yl)oxy)-2-azaspiro[3.4]octan-2-yl)prop-2-en-1-one]	> 1000 nM	150 to 1000 nM

More lines, main results first:

GI50 [1]	SMILES	GI50 [2]
150 to 1000 nM	C=CC(=O)N1CCC(Oc2cc3c(Nc4cc(-c5cccc([N+](=O)[O-])c5)ccc4OC)ncnc3cc2OC)CC1 [Example 197, 1-(4-((7-methoxy-4-((4-methoxy-3′-nitro-[1,1′-biphenyl]-3-yl)amino)quinazolin-6-yl)oxy)piperidin-1-yl)prop-2-en-1-one]	> 1000 nM
≤ 150 nM	C=CC(=O)N1CCC(Oc2cc3c(Nc4cc(-c5cccc(C(=O)OC)c5)ccc4OC)ncnc3cc2OC)CC1 [Example 204, methyl 3′-((6-((1-acryloyl-piperidin-4-yl)oxy)-7-methoxy-quinazolin-4-yl)amino)-4′-methoxy-[1,1-biphenyl]-3-carboxylate]	150 to 1000 nM
150 to 1000 nM	C=CC(=O)N1CCC(Oc2cc3c(Nc4cc(-c5cccc(SC)c5)ccc4OC)ncnc3cc2OC)CC1 [Example 205, 1-(4-((7-methoxy-4-((4-methoxy-3′-(methylthio)-[1,1′-biphenyl]-3-yl)amino)quinazolin-6-yl)oxy)piperidin-1-yl)prop-2-en-1-one]	> 1000 nM
150 to 1000 nM	C=CC(=O)Nc1cccc(-c2ccc(OC)c(Nc3ncnc4cc(OC)c(OC5CCN(C(=O)C=C)CC5)cc34)c2)c1 [Example 208, N-(3′-((6-((1-acryloyl-piperidin-4-yl)oxy)-7-methoxy-quinazolin-4-yl)amino)-4′-methoxy-[1,1′-biphenyl]-3-yl)acrylamide]	> 1000 nM
≤ 150 nM	C=CC(=O)N1CCC(Oc2cc3c(Nc4cc(-c5ccc(F)c(OC)c5F)ccc4OC)ncnc3cc2OC)CC1 [Example 210, 1-(4-((4-((2′,4′-difluoro-3′,4-dimethoxy-[1,1′-biphenyl]-3-yl)amino)-7-methoxy-quinazolin-6-yl)oxy)piperidin-1-yl)prop-2-en-1-one]	150 to 1000 nM
≤ 150 nM	C=CC(=O)N1CCC(Oc2cc3c(Nc4cc(-c5cccc(OC(F)(F)F)c5)ccc4OC)ncnc3cc2OC)CC1 [Example 211, 1-(4-((7-methoxy-4-((4-methoxy-3′-(trifluoro-methoxy)-[1,1′-biphenyl]-3-yl)amino)quinazolin-6-yl)oxy)piperidin-1-yl)prop-2-en-1-one]	150 to 1000 nM
150 to 1000 nM	C=CC(=O)N1CCC2(CC(Oc3cc4c(Nc5cc(-c6ccco6)ccc5OC)ncnc4cc3OC)C2)C1 (stereo not shown) [Example 220, 1-(2-((4-((5-(furan-2-yl)-2-methoxyphenyl)amino)-7-methoxy-quinazolin-6-yl)oxy)-6-azaspiro[3.4]octan-6-yl)prop-2-en-1-one]	150 to 1000 nM
≤ 150 nM	C=CC(=O)N1CCC(Oc2cc3c(Nc4cc(-c5ccc(F)cc5F)ccc4OC)ncnc3cc2OCC)CC1 [Example 239, 1-(4-((4-((2′,4′-difluoro-4-methoxy-[1,1′-biphenyl]-3-yl)amino)-7-ethoxyquinazolin-6-yl)oxy)piperidin-1-yl)prop-2-en-1-one]	≤ 150 nM
≤ 150 nM	C=CC(=O)N1CCC(Nc2cc3c(Nc4cc(-c5ccc(F)cc5F)ccc4OC)ncnc3cc2OC(F)F)CC1 [Example 297, 1-(4-((4-((2′,4′-difluoro-4-methoxy-[1,1′-biphenyl]-3-yl)amino)-7-(difluoromethoxy)quinazolin-6-yl)amino)piperidin-1-yl)prop-2-en-1-one]	≤ 150 nM
